Tested on: cigarette smoke-induced influx of neutrophilic granulocytes into the lung tissue
Assay: Test 1: Inhibition of the smoke-induced accumulation of granulocytes in the lung tissue (MPO activity)
Assay type: in vivo, rats (Sprague-Dawley)
Conditions: for ID50 (dosage which led to a 50% inhibition of the MPO activity): male Sprague-Dawley rats, 5 days smoke from 8 cigarettes per day, intratracheal dose 30 min before exposure, lung tissue MPO, linear regression
Text: • A=4-[(R)-(1-phenyl-ethyl)amino]-6-{[4-((R)-6-methyl-2-oxo-morpholin-4-yl)-1-oxo-2-buten-1-yl]amino}-7-methoxy-quinazoline, • B=4-[(3-chloro-4-fluorophenyl)amino]-6-({4-[N,N-bis-(2-methoxy-ethyl)-amino]-1-oxo-2-buten-1-yl}amino)-7-[(tetrahydrofuran-2-yl)methoxy]-quinazoline, • C=4-[(3-chloro-4-fluoro-phenyl)amino]-6-[2-(2,2-dimethyl-6-oxo-morpholin-4-yl)-ethoxy]-7-methoxy-quinazoline, • D=4-[(3-chloro-4-fluoro-phenyl)amino]-6-[2-(2,2-dimethyl-6-oxo-morpholin-4-yl)-ethoxy]-7-[(R)-(tetrahydrofuran-2-yl)methoxy]-quinazoline and • E=4-[(3-chloro-4-fluoro-phenyl)amino]-7-[2-(2,2-dimethyl-6-oxo-morpholin-4-yl)-ethoxy]-6-[(S)-(tetrahydrofuran-2-yl)methoxy]-quinazoline were tested as follows to investigate their anti-inflammatory activity: Test 1: Inhibition of the Smoke-Induced Accumulation of Granulocytes in the Lung Tissue Lung indications: Inhibition of the cigarette smoke-induced influx of neutrophilic granulocytes into the lung tissue by the EGF-receptor kinase inhibitor 4-[(R)-(1-phenyl-ethyl)amino]-6-{[4-((R)-6-methyl-2-oxo-morpholin-4-yl)-1-oxo-2-buten-1-yl]amino}-7-methoxy-quinazoline (compound A). Male rats (strain: Sprague-Dawley) weighing from 250-300 g were exposed for 5 days to the smoke from 8 cigarettes per day. The animals in the group treated with compound A, anaesthetised with isofluran, were given an intratracheal dose of 0.03 or 0.1 mg/kg of compound A in a volume of 0.05 ml each day 30 min before the start of the exposure to smoke. On the last day of the test the animals were killed 4 hours after the last exposure to smoke and the lung tissue was removed. A sample of 70-200 mg was taken from each lung and placed in a test tube prepared with 1 ml of 0.5% hexadecyltrimethylammonium bromide. The samples were homogenised for 15 sec using an Ultraturrax. The homogenised samples were centrifuged at 15700 g in an Eppendorf bench centrifuge for 5 min at ambient temperature. […] of the supernatant was removed and mixed with […] of phosphate buffer (50 mmol/l) containing 0.197 mg/ml of O-dianisidine dihydrochloride. After 10 minutes' incubation at ambient temperature the absorption was measured with a spectral photometer at a wavelength of 450 nm. The dosage which led to a 50% inhibition of the MPO activity (═ID50) was determined by linear regression.

Structure (SMILES): COc1cc2ncnc(N[C@H](C)c3ccccc3)c2cc1NC(=O)C=CCN1CC(=O)O[C@H](C)C1 [A, 4-[(R)-(1-phenyl-ethyl)amino]-6-{[4-((R)-6-methyl-2-oxo-morpholin-4-yl)-1-oxo-2-buten-1-yl]amino}-7-methoxy-quinazoline]
- ID50 (dosage which led to a 50% inhibition of the MPO activity): 0.3 mg/kg
- inhibition of the smoke-induced accumulation of granulocytes (myeloperoxidase content of lung tissue) (rats, intratracheal 0.03 or 0.1 mg/kg daily for 5 days, 30 min before smoke exposure): significant (p<0.005) inhibition

Structure (SMILES): COCCN(CC=CC(=O)Nc1cc2c(Nc3ccc(F)c(Cl)c3)ncnc2cc1OCC1CCCO1)CCOC (stereo not drawn) [B, 4-[(3-chloro-4-fluorophenyl)amino]-6-({4-[N,N-bis-(2-methoxy-ethyl)-amino]-1-oxo-2-buten-1-yl}amino)-7-[(tetrahydrofuran-2-yl)methoxy]-quinazoline]
- ID50 (dosage which led to a 50% inhibition of the MPO activity): 0.2 mg/kg

Structure (SMILES): COc1cc2ncnc(Nc3ccc(F)c(Cl)c3)c2cc1OCCN1CC(=O)OC(C)(C)C1 [C, 4-[(3-chloro-4-fluoro-phenyl)amino]-6-[2-(2,2-dimethyl-6-oxo-morpholin-4-yl)-ethoxy]-7-methoxy-quinazoline]
- ID50 (dosage which led to a 50% inhibition of the MPO activity): 1 mg/kg

Structure (SMILES): CC1(C)CN(CCOc2cc3c(Nc4ccc(F)c(Cl)c4)ncnc3cc2OC[C@H]2CCCO2)CC(=O)O1 [D, 4-[(3-chloro-4-fluoro-phenyl)amino]-6-[2-(2,2-dimethyl-6-oxo-morpholin-4-yl)-ethoxy]-7-[(R)-(tetrahydrofuran-2-yl)methoxy]-quinazoline]
- ID50 (dosage which led to a 50% inhibition of the MPO activity): 1.1 mg/kg

Structure (SMILES): CC1(C)CN(CCOc2cc3ncnc(Nc4ccc(F)c(Cl)c4)c3cc2OC[C@@H]2CCCO2)CC(=O)O1 [E, 4-[(3-chloro-4-fluoro-phenyl)amino]-7-[2-(2,2-dimethyl-6-oxo-morpholin-4-yl)-ethoxy]-6-[(S)-(tetrahydrofuran-2-yl)methoxy]-quinazoline]
- ID50 (dosage which led to a 50% inhibition of the MPO activity): 0.4 mg/kg

From US20050059661A1, “Use of tyrosine kinase inhibitors for the treatment of inflammatory processes” (Boehringer Ingelheim International GmbH, priority 2003, published 2005)
